Laboratory results taken from paper PMC7724566, “Prospects for Clinical Development of Stat5 Inhibitor IST5-002: High Transcriptomic Specificity in Prostate Cancer and Low Toxicity In Vivo” (Cancers, 2020).

Columns and labels:
[1] = molecular target: TYK2 (Homo sapiens, UniProt P29597); assay: Cell-based tyrosine phosphorylation of Jak kinases (IP/immunoblot); design: endogenous in cells; host or cells: DU145 and CWR22Pc; details: 6 µM, 6 h
Source text: (§1) Figure 5 Both IST5 and IST5-M suppress dimerization of Stat5 with similar efficacies in prostate cancer cells. (A), IST5 and IST5-M inhibit equally potently dimerization of Stat5 in native-gel-based Stat5 dimerization assay. CWR22Rv1 cells were transfected with STAT5A-eYFP (Stat5 wild type), STAT5A-N642H-eYFP (constitutive activated Stat5 by N642H mutation, as a positive control) or STAT3-eYFP (Stat3 wild type, as a negative control) constructs for 3 days. CWR22Rv1 cells were serum-starved for 16 h, pretreated with vanadate (1 mM) for 2 h, followed by treatment with vehicle, IST5 and IST5-M (1 µM) for 6 h and stimulation with Prl (10 nM) for 1 h. Dimerization of Stat5 was analyzed by detection of the eYFP fluorescence of the native Coomassie gel. (B), IST5 and IST5-M inhibited cytokine-induced dimerization of Stat5 with high efficacy in PC cells. PC-3 cells were co-transfected with pCMV-3Flag-Stat5a, pCMV-3Myc-Stat5a, and pPrlR plasmids. Cells were serum-starved for 16 h, pretreated with IST5, IST5-M or vehicle at indicated concentrations for 2 h, followed by stimulation with Prl (10 nM) for 30 min. Anti-MYC mAb was utilized to immunoprecipitate the MYC-tagged Stat5a and blotted with anti-FLAG mAb or anti-MYC mAb, as indicated. […] (C), densitometric analyses of the Stat5 dimerization data based on co-immunoprecipitations and immunoblotting in (B). […] Prostate cancer cells were treated with IST5 (6 µM) or vehicle for 6 h. Jak1, Jak2, Jak3 and Tyk2 were immunoprecipitated and blotted with anti-phospho-tyrosine, Jak1, Jak2, Jak3 and Tyk2 antibodies. Whole cell lysates (WCL) were immunoblotted for actin. (E), differences in posttranslational modifications were detected between native and recombinant STAT5a using mass spectrometry. Native STAT5a from CWR22Rv1 cells and recombinant STAT5a from E. coli were gel-purified, digested using trypsin, and analyzed by bottom-up mass spectrometry. Native full-length STAT5a (blue) is show with recombinant STAT5A highlighted (red). Sites of acetylation and phosphorylation from the respective sources are noted including two previously published sites of phosphorylation (asterisk).
(§2) Given that IST5 suppresses phosphorylation of Stat5 in PC cells, it is possible that IST5 inhibits the kinase(s) responsible for Stat5 phosphorylation and activation in PC cells. To evaluate if IST5 affects kinase activity in cancer cells, we tested kinase inhibitory activity of IST5 in two custom-tailored panels including 54 relevant kinases (Table 1), including Jak1, Jak2, Jak3, Tyk2, Abl1, Abl2, Lck, Fyn, Src and TrkB/C. In addition, we further tested if IST5 inhibits tyrosine phosphorylation of Jak1, Jak2, Jak3 or Tyk2 using a cell-based assay (Figure 5D), where phosphorylation of the kinase is indicative of enzymatic kinase activity. DU145 and CWR22Rv1 cells were treated with IST5 (6 µM) for 6 h followed by immunoprecipitation of Jak1, Jak2, Jak3 and Tyk2 and immunoblotting with anti-phospho-tyrosine antibody. […] Collectively, these findings indicate that the inhibitory effect of IST5 on Stat5 phosphorylation in cancer cells is not due to inhibition of Jak2 or other key kinases including Jak1, Jak3, Tyk2, Src, Lck, Fyn, TrkB/C, Abl1 or Abl2 (Table 1, Figure 5D).
(§3) Cell pellets were solubilized in the lysis buffer (10 mM Tris-HCl (pH 7.6), 5 mM EDTA, 50 mM sodium chloride, 30 mM sodium pyrophosphate, 50 mM sodium fluoride, 1 mM sodium orthovanadate, 1% Triton X-100, 1 mM phenylmethylsulfonyl fluoride, 5 µg/mL aprotinin, 1 µg/mL pepstatin A and 2 µg/mL leupeptin), and protein concentrations of clarified cell lysates were determined by a simplified Bradford method (Bio-Rad, Hercules, CA, USA). The whole cell lysates were immunoprecipitated with polyclonal antibodies (Table S1) followed by incubation with protein A-Sepharose beads (GE Healthcare, Chicago, IL, USA). […]

[2] = molecular target: JAK1 (Homo sapiens, UniProt P23458); assay: as above; design: endogenous in cells; host or cells: DU145 and CWR22Pc; details: 6 µM, 6 h
Source text: as §1, §2, §3

Chain of TYK2 (P29597 whole entry): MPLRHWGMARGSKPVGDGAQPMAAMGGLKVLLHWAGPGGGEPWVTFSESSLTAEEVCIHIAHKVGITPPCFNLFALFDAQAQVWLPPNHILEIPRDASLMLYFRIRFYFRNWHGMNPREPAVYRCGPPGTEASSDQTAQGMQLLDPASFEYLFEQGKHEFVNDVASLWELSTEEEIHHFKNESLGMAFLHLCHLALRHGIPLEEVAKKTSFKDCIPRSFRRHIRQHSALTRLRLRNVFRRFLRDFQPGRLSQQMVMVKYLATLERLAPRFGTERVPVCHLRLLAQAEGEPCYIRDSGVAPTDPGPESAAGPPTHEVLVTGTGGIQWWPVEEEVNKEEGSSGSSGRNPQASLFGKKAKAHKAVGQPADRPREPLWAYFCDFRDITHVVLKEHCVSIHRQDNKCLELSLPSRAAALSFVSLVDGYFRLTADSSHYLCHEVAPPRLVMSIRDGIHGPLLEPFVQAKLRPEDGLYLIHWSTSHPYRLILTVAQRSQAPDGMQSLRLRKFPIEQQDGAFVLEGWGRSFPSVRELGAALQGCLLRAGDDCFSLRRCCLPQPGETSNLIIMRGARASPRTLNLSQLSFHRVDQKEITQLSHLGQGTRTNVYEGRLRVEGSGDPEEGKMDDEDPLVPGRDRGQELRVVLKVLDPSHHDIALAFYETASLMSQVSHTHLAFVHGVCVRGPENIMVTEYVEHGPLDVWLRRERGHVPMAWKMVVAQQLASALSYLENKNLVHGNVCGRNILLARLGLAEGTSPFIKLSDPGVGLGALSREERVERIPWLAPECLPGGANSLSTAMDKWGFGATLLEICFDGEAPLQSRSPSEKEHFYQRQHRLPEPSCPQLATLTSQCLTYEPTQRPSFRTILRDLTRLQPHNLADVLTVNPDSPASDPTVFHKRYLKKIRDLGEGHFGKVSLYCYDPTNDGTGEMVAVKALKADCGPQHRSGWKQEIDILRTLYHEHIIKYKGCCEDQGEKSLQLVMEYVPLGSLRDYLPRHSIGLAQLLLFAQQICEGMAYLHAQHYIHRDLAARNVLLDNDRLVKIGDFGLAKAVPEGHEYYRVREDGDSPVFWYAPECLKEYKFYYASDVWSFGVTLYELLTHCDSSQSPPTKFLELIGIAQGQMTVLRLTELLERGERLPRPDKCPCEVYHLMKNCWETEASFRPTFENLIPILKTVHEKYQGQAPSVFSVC
Chain of JAK1 (P23458 whole entry): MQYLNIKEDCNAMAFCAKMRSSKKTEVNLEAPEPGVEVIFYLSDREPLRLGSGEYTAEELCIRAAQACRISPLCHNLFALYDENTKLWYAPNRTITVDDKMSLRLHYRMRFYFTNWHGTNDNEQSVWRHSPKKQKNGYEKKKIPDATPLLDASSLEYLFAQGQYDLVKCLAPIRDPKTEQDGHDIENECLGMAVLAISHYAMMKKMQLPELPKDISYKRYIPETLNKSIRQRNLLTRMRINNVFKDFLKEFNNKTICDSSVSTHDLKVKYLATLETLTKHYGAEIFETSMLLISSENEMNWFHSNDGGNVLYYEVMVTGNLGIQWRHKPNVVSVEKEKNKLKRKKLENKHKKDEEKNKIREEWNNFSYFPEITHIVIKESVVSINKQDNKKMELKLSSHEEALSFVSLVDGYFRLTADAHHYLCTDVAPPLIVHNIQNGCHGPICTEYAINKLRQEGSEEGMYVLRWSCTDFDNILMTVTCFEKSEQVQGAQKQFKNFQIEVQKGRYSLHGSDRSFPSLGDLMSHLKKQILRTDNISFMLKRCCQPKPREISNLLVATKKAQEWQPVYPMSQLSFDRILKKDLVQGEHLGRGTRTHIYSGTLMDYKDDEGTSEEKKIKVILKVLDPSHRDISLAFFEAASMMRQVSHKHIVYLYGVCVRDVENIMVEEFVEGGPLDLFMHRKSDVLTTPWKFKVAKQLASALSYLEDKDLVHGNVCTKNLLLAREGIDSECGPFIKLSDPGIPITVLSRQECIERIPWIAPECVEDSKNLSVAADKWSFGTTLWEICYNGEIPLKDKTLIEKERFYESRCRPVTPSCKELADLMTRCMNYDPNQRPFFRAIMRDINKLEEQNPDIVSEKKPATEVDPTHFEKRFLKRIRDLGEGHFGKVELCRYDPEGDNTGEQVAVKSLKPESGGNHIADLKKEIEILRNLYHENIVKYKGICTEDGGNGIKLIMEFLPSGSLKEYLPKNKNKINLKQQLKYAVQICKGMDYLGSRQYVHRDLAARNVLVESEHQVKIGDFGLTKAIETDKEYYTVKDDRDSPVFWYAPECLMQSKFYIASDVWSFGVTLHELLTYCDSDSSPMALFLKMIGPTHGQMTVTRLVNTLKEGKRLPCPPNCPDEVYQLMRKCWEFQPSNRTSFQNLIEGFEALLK

O=P(O)(O)OCC1OC(n2cnc3c(NCc4ccccc4)ncnc32)C(O)C1O (stereo not shown) [IST5]
did not alter: phosphorylation of Tyk2 ([1]; CWR22Pc cells) | phosphorylation of Tyk2 ([1]; DU145 cells) | phosphorylation of Jak1 ([2]; CWR22Pc cells) | phosphorylation of Jak1 ([2]; DU145 cells)
